Entries after “also recorded” stand apart in the source; their conditions may differ.
Columns and labels:
HUVEC = HUVEC cell viability after irradiation (MTT / CellTiter 96); assay type: cell-based, human
Method: FIG. 11. Radioprotective activities of TSP1 and CD47 antibodies, a CD47 binding peptide from TSP1, and a CD47 morpholino. HUVEC were plated on 96-well plates in standard growth medium. Cells were treated with TSP1 (FIG. 11A) or CD47 (FIG. 11B) monoclonal antibodies (clone A6.1 or B6H12, respectively) and received the indicated doses of radiation 24 hours after addition of the antibodies. Cell (mitochondrial) viability was measured 48 hours post irradiation using an MTT assay. Cells were treated using peptide 7N3 (FIG. 11C) and control peptide 604 (FIG. 11D), subjected to the same experimental conditions, and assayed via MTT. […] Experiments were repeated 3 times and results presented as the mean±SD.
(§1) FIG. 12. Peptides 7N3 and C6d are radioprotective to HUVEC in culture. Human umbilical vein endothelial cells (HUVEC) grown in EGM medium in 96-well plates were treated with graded doses of a peptide agent, as indicated. One hour later, cells were exposed to a single dose of gamma radiation (0, 10, 20, 30, and 40 Gray) and allowed to incubate 72 hours at 37° C. Cell viability was determined with the CellTiter 96 AQueous One Solution Cell Proliferation Assay.
Cell Viability Assay. HUVEC were plated at a density of 5000 cells/well in 96 well plates (Nunc), and were treated 24 hours later with either the indicated doses of a CD47 antibody (B6H12), a TSP1 antibody (A6.1), the CD47-binding peptide 7N3, or control peptide 604. One hour later the cells were exposed to a single dose of gamma radiation (0, 10, 20, 30, and 40 Gy) and allowed to incubate another 72 hours at 37° C. Experiments done with B16E10 melanoma cells in Example 4 were done in a similar manner treating either 1 hour prior to a single dose of radiation (10 Gy) with peptide 7N3 or 48 hours prior with CD47 morpholino. Cell viability was determined using the CellTiter 96 Aqueous One Solution cell proliferation assay (Promega, Madison, Wis.) as per the manufacturer's instructions and absorbance at 490 nm was determined using an MR580 Microelisa AutoReader (Dynatech, Alexandria, Va.). The same assay was performed on HUVEC using either the CD47 or CD36 morpholino, but 48 hours were allowed to pass prior to radiation (0 or 40 Gy) to allow for suppression of the target proteins. Similarly, control experiments were performed using the nitric oxide synthase (NOS) inhibitor L-NAME, a membrane permeable cGMP analogue, 8-Bromo cGMP, or the NO donor DETA/NO.
as §1, with “In an additional experiment to test the effect of” for “FIG. 12. Peptides 7N3 and C6d are”, “peptides, human” for “to HUVEC in culture. Human”

B16F10 melanoma cells = assay: B16F10 melanoma cell viability after irradiation in vitro; assay type: cell-based, mouse; conditions: 7N3 1 hour or morpholino 48 hours before 10 Gy, versus untreated cells
Method: FIG. 19. CD47 suppression enhances re-growth delay in irradiated syngeneic B16 melanoma and squamous cell carcinoma tumors but increases radioresistance of B16 cells in vitro. C57BL/6 mice were injected with 1×10^6 B16 mouse melanoma cells into their right hindlimbs. Five days later, the mice were randomized into 4 groups (12 mice in each group) where they either received injections of CD47 morpholino (10 μM) in sterile PBS, PBS, or no injection. The two groups receiving injections were then subjected to radiation (10 Gy) to the effected hindlimb 48 hours later. The other two groups served as controls and consisted of tumor alone or tumor subjected to only the morpholino. Tumors were followed post-radiation for 30 days, measuring their volume every 6 days (FIG. 19A). […] Cell (mitochondrial) viability was measured 48 hours post radiation using the MTT assay.
Cell Viability Assay. […] Cell viability was determined using the CellTiter 96 Aqueous One Solution cell proliferation assay (Promega, Madison, Wis.) as per the manufacturer's instructions and absorbance at 490 nm was determined using an MR580 Microelisa AutoReader (Dynatech, Alexandria, Va.). […]
Irradiation of cells. […] The dose rate at 50 cm from the x-ray source was 242 cGy/minute, as determined by multiple thermo luminescent dosimeter readings.

CGTCACAGGCAGGACCCACTGCCCA (all phosphorodiamidate morpholino (PMO)) [CD47 morpholino, CD47 targeting morpholino oligonucleotide]
cell survival of irradiated HUVEC with L-NAME co-incubation (HUVEC; co-incubation of L-NAME and CD47 morpholino ± radiation (FIG. 22C)): enhancing cell survival
cell viability post radiation after morpholino pretreatment (HUVEC; morpholino 48 hours before radiation (FIG. 11E, F)): granted protection against cell death; also recorded: resistant to radiation-driven cell death
cell viability after 10 Gy (B16F10 melanoma cells): mild radioprotective effect
